In article PMC2745557 (FEBS letters, 2009):

Columns and labels:
Bombyx AKHR [1] = target: T1, Bombyx AKHR (Bombyx mori, UniProt Q8T6U9); type: cell-based
T1 sequence (Q8T6U9 1-405): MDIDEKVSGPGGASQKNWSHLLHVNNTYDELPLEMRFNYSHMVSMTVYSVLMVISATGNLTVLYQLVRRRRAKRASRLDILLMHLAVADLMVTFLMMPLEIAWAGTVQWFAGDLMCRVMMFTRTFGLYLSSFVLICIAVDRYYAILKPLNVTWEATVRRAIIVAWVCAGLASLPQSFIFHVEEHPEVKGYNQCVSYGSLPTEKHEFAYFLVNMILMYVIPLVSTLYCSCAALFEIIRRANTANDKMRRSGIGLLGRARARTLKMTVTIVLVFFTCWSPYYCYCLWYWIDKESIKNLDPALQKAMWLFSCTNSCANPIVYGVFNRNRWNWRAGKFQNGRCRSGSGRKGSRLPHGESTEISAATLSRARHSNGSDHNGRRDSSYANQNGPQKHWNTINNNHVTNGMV

Bombyx AKHR [2] = target: T1, Bombyx AKHR; conditions: compared with AKH1; ref [12]; cited from earlier work

| Substance | effect of toxin pre-treatment on cAMP generation (Bombyx AKHR [1]) | affinity of activation of Bombyx AKHR (Bombyx AKHR [2]) |
| --- | --- | --- |
| Pertussis toxin [PTX] | no effect on cAMP generation | – |
| cholera toxin [CTX] | remarkable increase in the cellular levels of cAMP | – |
| Heliothis zea hypertrehalosaemic hormone [Hez-HrTH] | – | higher affinity than that of AKH1 |
